≈ marks a conversion by molar mass, not a printed value. Like-named read-outs stand apart in the source and are kept apart here.
Columns and labels:
Streptococcus pneumoniae = test: MIC90 by NCCLS broth microdilution against a worldwide collection of Streptococcus pneumoniae; format: cell-based
Method: (§1) The term "MIC" or "minimum inhibitory concentration" refers to the lowest concentration of the agent that prevents visible growth after 18 to 24 hours of incubation. "MIC90" refers to the lowest concentration of the agent that prevents 90% growth after 18 to 24 hours of incubation. "MBC" or "minimal bactericidal concentration" refers to the lowest concentration that results in a 99.9% decline in bacterial numbers. Although the value of the MBC as a clinical test has not been established, it may be useful in special instances where very precise knowledge of the ability of a given antimicrobial agent to kill a specific clinical isolate is critical, as in the therapy of bacterial endocarditis.
Table 1 lists the in vitro activity of N^DISACC-(4-(4-chlorophenyl)benzyl)A82846B and other compounds against a worldwide collection of Streptococcus pneumoniae. N^DISACC-(4-(4-chlorophenyl)benzyl)A82846B clearly demonstates a significant improvement against all three strains. […]
MICs were determined using NCCLS broth microdilution methodology (see, Fasola E., Spangler SK., Ednie LM., Jacobs MR., Bajaksouzian S., and Appelbaum PC., "Comparative activities of LY 333328 against penicillin-susceptible and -resistant pneumococci" Antimicrobial Agents & Chemotherapy, 40(11), 2661-3 (1996)).

[1] = system: penicillin-sensitive S. pneumoniae type 3 strain; test: In-vivo rabbit model of S. pneumoniae meningitis (CSF measurements); conditions: rabbits
Method: (§2) At 12 h after infection, they were treated with a single dose of N^DISACC-(4-(4-chlorophenyl)benzyl)A82846B [1 mg/kg (n = 5), 2.5 mg/kg (n = 5), 10 mg/kg (n = 10), […] (n = 2)] . N^DISACC-(4-(4-chlorophenyl)benzyl)A82846B was dissolved in 5% glucose and infused over 30 min. Controls received a bolus of ceftriaxone (20 mg/kg body weight) followed by a continuous infusion of 10 mg/kg/h (n = 12). The cerebrospinal fluid (CSF) was drawn at 12, 14, 17, 20, and 24h for the determination of bacterial titers, leukocyte densities, lipoteichoic/teichoic acid, lactate and protein concentrations. The concentration of the neuron-specific enolase in CSF was measured at 24h. Bactericidal activity in CSF was estimated by log-linear regression of bacterial titers versus time. Additionally, time-kill curves were performed with 10 mg/l N^DISACC-(4-(4-chlorophenyl)benzyl)A82846B.

S.pneumoniae = test: In vitro time-kill curves; format: cell-based; conditions: 10 mg/l
Method: as §2

S aureus SA027 = test: Mouse protection model, intraperitoneal bacterial challenge; format: in vivo; conditions: mice; dose protecting 50% from lethal infection; two subcutaneous doses 1 and 5 hours after challenge
Method: (§3) As listed in Table 2, N^DISACC-(4-(4-chlorophenyl)benzyl)A82846B appeared to have activity 30 to 40 times that of vancomycin when given subcutaneously to mice with systemic streptococcal or staphylococcal infections. […] In a murine model of systemic infection, various dosing regimens of N^DISACC-(4-(4-chlorophenyl)benzyl)A82846B administered subcutaneously were compared in animals inoculated intraperitoneally with either S pneumoniae or S aureus. The total dose ranged from 0.18 to 2.01 mg/kg body weight, subdivided into 1 to 24 doses during a 48-hour treatment period. Pharmacokinetic studies were performed in uninfected animals using a bioassay. Using multiple regression analysis to find the pharmacodynamic parameter associated with survival, time above the MIC appeared-to be more important (p<0.00001) than the maximum plasma concentration Cmax (p=0.01); however, for 1- and 2-dose regimens near the ED50, Cmax appeared to be the best predictor of outcome. A more detailed description of this study may be found in Knudsen, J., et al., "Pharmacodynamics of glycopeptides in Animal Models" Abstracts of the 20th International Congress of Chemotherapy, Abstract No. 4076, June (1997). […]

S pneumoniae Park I = test: as above; format: in vivo; conditions: mice; dose protecting 50% from lethal infection; two subcutaneous doses 1 and 5 hours after challenge
Method: as §3

S pyogenes C-203 = test: as above; format: in vivo; conditions: mice; dose protecting 50% from lethal infection; two subcutaneous doses 1 and 5 hours after challenge
Method: as §3

[2] = parameters: species or system rats; conditions: rat, in vivo, 5 mg/kg
Description: Although single doses of N^DISACC-(4-(4-chlorophenyl)benzyl)A82846B may provide high plasma concentrations for a prolonged period of time, it may also be highly desirable to maintain high concentrations in respiratory tissues (the main portal of initial tissue infection and invasion).

[3] = system: penicillin-sensitive S. pneumoniae type 3 strain; test: MIC and MBC for the meningitis model strain; format: cell-based; conditions: penicillin-sensitive type 3 strain
Method: as §1
as §2, with “Bactericidal activity in CSF was estimated by log-linear regression of bacterial titers versus time. Additionally, time-kill curves were performed with 10 mg/l N^DISACC-(4-(4-chlorophenyl)benzyl)A82846B.” left out

[4] = Safety and pharmacokinetics of single intravenous doses in eight healthy men; format: in vivo
Method: An open-label, uncontrolled, dose-escalation study was conducted with eight healthy men. All subjects were between 22 and 50 years of age and within 10% of their ideal body weights. Single does, ranging from 0.5 mg/kg body weight to 3 mg/kg body weight, were administered intravenously over 30 minutes. Plasma samples were collected just prior to the start of infusion and at intervals for 336 hours after the end of the infusion for assessment of drug concentration, biochemical and hematologic parameters. N^DISACC-(4-(4-chlorophenyl)benzyl) A82846B plasma and urine concentrations were determined by HPLC and competitive binding radioimmunoassay, respectively. Individual plasma concentration-time profiles were evaluated based on compartmental analysis techniques.

S. pneumoniae = test: Neutropenic model of S. pneumoniae bacteremia in mice; format: in vivo; conditions: subcutaneously or intravenously at doses ≥ 5 mg/kg body weight
[5] = parameters: species or system mice; conditions: mouse, in vivo, sc
Method: as §3

[6] = Streptococcus pneumoniae, Intermediate N = 40 (penicillin-intermediate by NCCLS criteria), read-out: MIC90
[7] = Streptococcus pneumoniae, Resistant N = 42 (penicillin-resistant by NCCLS criteria), read-out: MIC90
[8] = Streptococcus pneumoniae, Sensitive N = 50 (penicillin-sensitive by NCCLS criteria), read-out: MIC90
[9] = Intermediate N = 40 (penicillin-intermediate by NCCLS criteria)
[10] = Resistant N = 42 (penicillin-resistant by NCCLS criteria)
[11] = Sensitive N = 50 (penicillin-sensitive by NCCLS criteria)
[12] = estimated by Lineweaver-Burk plot
[13] = healthy men, single i.v. dose 0.5 to 3 mg/kg over 30 minutes
[14] = healthy men, single i.v. dose 0.5 to 3 mg/kg over 30 minutes, normalized to dose and weight

Molecule: CO/N=C(\C(=O)N[C@@H]1C(=O)N2C(C(=O)O)=C(CSc3nc(=O)c(=O)[nH]n3C)CS[C@H]12)c1csc(N)n1 [Ceftriaxone]
- MIC90 (Streptococcus pneumoniae; [6]): 0.5 µg/mL (≈ 0.902 µM)
- MIC90 (Streptococcus pneumoniae; [7]): 2 µg/mL (≈ 3.61 µM)
- MIC90 (Streptococcus pneumoniae; [8]): 0.06 µg/mL (≈ 0.108 µM)
- bactericidal activity in CSF, Δlog CFU/ml/h ± SD ([1]; bolus 20 mg/kg body weight then continuous infusion of 10 mg/kg/h): -0.33 ± 0.15 Δlog CFU/ml/h
- time until S.pneumoniae killed / cultures sterile (S.pneumoniae): 12 h

Molecule: N^DISACC-(4-(4-chlorophenyl)benzyl)A82846B
- MIC90 (Streptococcus pneumoniae; [9]): 0.015 µg/mL
- MIC90 (Streptococcus pneumoniae; [10]): 0.03 µg/mL
- MIC90 (Streptococcus pneumoniae; [11]): 0.008 µg/mL
- ED50 (S aureus SA027): 0.009 mg/kg/dose
- ED50 (S pneumoniae Park I): 0.028 mg/kg/dose
- ED50 (S pyogenes C-203): 0.045 mg/kg/dose
- lung tissue half life [2]: 29 days
- mean concentration of the neuron-specific enolase in CSF at 24h ([1]; 10 mg/kg body weight, parameter of neuronal damage, p = 0.14 vs ceftriaxone): 92.3 ± 68.7
- half-maximal dose (KD) [1, 12]: 5.3 mg/kg body weight
- maximum bactericidal rate (Emax) [1, 12]: -0.88 Δlog CFU/ml/h
- bactericidal activity in CSF, Δlog CFU/ml/h ± SD ([1]; single dose of 1 mg/kg body weight (only bacteriostatic)): 0.01 ± 0.11 Δlog CFU/ml/h
- bactericidal activity in CSF, Δlog CFU/ml/h ± SD ([1]; single dose of 2.5 mg/kg): -0.26 ± 0.22 Δlog CFU/ml/h
- bactericidal activity in CSF, Δlog CFU/ml/h ± SD ([1]; single dose of 10 mg/kg body weight 12 h after infection): -0.29 ± 0.21 Δlog CFU/ml/h
- Protein, lactate and lipoteichoic/teichoic acid concentrations in CSF ([1]; single dose of 10 mg/kg body weight compared with ceftriaxone 10 mg/kg/h): no significant differences
- bactericidal activity in CSF, Δlog CFU/ml/h ([1]; single dose of 40 mg/kg): -0.52 ± 0.02 Δlog CFU/ml/h
- MBC [3]: 0.03 µg/mL
- MIC [3]: 0.015 µg/mL
- terminal t1/2 ([4]; healthy men, single i.v. doses, to be interpreted cautiously): 10.5 days
- area under the terminal phase as share of total AUC0-∞ ([4]; human, in vivo, iv): approximately 50%
- effect on bacteremia (S. pneumoniae): eliminated bacteremia
- absorption following subcutaneous administration [5]: absorbed poorly
- time until S.pneumoniae killed / cultures sterile (S.pneumoniae): ≤ 1 h

Molecule: N^DISACC-(4-(4-chlorophenyl)benzyl)A82846B Diphosphate
- % dose excreted in urine, Mean (%CV) [4, 13]: 3.1 (42) %
- T1/2, Mean (%CV) [4, 13]: 251 (96) hr
- AUC0-∞, Mean (%CV) [4, 14]: 201 (62) (µg hr/ml)/(mg/kg)
- Cmax, Mean (%CV) [4, 14]: 16.5 (20) (µg/ml)/(mg/kg)
- Clp, Mean (%CV) ([4]; healthy men, single i.v. dose 0.5 to 3 mg/kg over 30 minutes, plasma clearance): 0.0896 (30) ml/min/kg
- Vss, Mean (%CV) ([4]; healthy men, single i.v. dose 0.5 to 3 mg/kg over 30 minutes, steady-state volume of distribution): 1.08 (45) 1/kg

Molecule: CO[C@H]1/C=C/O[C@@]2(C)Oc3c(C)c(O)c4c(O)c(c(/C=N/N5CCN(C)CC5)c(O)c4c3C2=O)NC(=O)/C(C)=C\C=C\[C@H](C)[C@H](O)[C@@H](C)[C@@H](O)[C@@H](C)[C@H](OC(C)=O)[C@@H]1C [Rifampin]
- MIC90 (Streptococcus pneumoniae; [6]): 0.015 µg/mL (≈ 0.0182 µM)
- MIC90 (Streptococcus pneumoniae; [7]): > 8 µg/mL
- MIC90 (Streptococcus pneumoniae; [8]): 0.03 µg/mL (≈ 0.0365 µM)

Molecule: C[C@@H](O)[C@H]1C(=O)N2C(C(=O)O)=C(SCCN=CN)C[C@H]12 [Imipenem]
- MIC90 (Streptococcus pneumoniae; [6]): 0.125 µg/mL (≈ 0.418 µM)
- MIC90 (Streptococcus pneumoniae; [7]): 0.5 µg/mL (≈ 1.67 µM)
- MIC90 (Streptococcus pneumoniae; [8]): 0.03 µg/mL (≈ 0.1 µM)

Molecule: CN[C@H](CC(C)C)C(=O)N[C@H]1C(=O)N[C@@H](CC(N)=O)C(=O)N[C@H]2C(=O)N[C@H]3C(=O)N[C@H](C(=O)N[C@H](C(=O)O)c4cc(O)cc(O)c4-c4cc3ccc4O)[C@H](O)c3ccc(c(Cl)c3)Oc3cc2cc(c3O[C@@H]2O[C@H](CO)[C@@H](O)[C@H](O)[C@H]2O[C@H]2C[C@](C)(N)[C@H](O)[C@H](C)O2)Oc2ccc(cc2Cl)[C@H]1O [Vancomycin]
- MIC90 (Streptococcus pneumoniae; [9]): 0.5 µg/mL (≈ 0.345 µM)
- MIC90 (Streptococcus pneumoniae; [10]): 0.5 µg/mL (≈ 0.345 µM)
- MIC90 (Streptococcus pneumoniae; Streptococcus pneumoniae): 0.5 µg/mL (≈ 0.345 µM)
- ED50 (S aureus SA027): 0.70 mg/kg/dose
- ED50 (S pneumoniae Park I): 1-1 mg/kg/dose
- ED50 (S pyogenes C-203): 0.80 mg/kg/dose

Molecule: Teicoplanin
- MIC90 (Streptococcus pneumoniae; [9]): 0.06 µg/mL
- MIC90 (Streptococcus pneumoniae; [10]): 0.06 µg/mL
- MIC90 (Streptococcus pneumoniae; [11]): 0.06 µg/mL

Molecule: CN[C@H](CC(C)C)C(=O)N[C@H]1C(=O)N[C@@H](CC(N)=O)C(=O)N[C@H]2C(=O)N[C@H]3C(=O)N[C@H](C(=O)N[C@H](C(=O)O)c4cc(O)cc(O)c4-c4cc3ccc4O)[C@H](O[C@H]3C[C@](C)(N)[C@@H](O)[C@H](C)O3)c3ccc(c(Cl)c3)Oc3cc2cc(c3O[C@@H]2O[C@H](CO)[C@@H](O)[C@H](O)[C@H]2O[C@H]2C[C@](C)(N)[C@@H](O)[C@H](C)O2)Oc2ccc(cc2Cl)[C@H]1O [A82846B]
- ED50 (S pneumoniae Park I): 0.18 mg/kg/dose
- ED50 (S pyogenes C-203): 0.18 mg/kg/dose

Molecule: CC1(C)S[C@@H]2[C@H](NC(=O)Cc3ccccc3)C(=O)N2[C@H]1C(=O)O [Penicillin G]
- MIC90 (Streptococcus pneumoniae; [9]): 1.0 µg/mL (≈ 2.99 µM)
- MIC90 (Streptococcus pneumoniae; [10]): 4.0 µg/mL (≈ 12 µM)
- MIC90 (Streptococcus pneumoniae; [11]): 0.06 µg/mL (≈ 0.179 µM)
